Laboratory results reported in US20150209379A1, “TREATMENT OF PROSTATE CANCER AND HEMATOLOGIC NEOPLASMS” (THOMAS JEFFERSON UNIVERSITY, priority 2012, published 2015).

What was measured:
[1] = test system: KCL22R imatinib-resistant human chronic myeloid leukemia cells; assay: Cell viability, MTS assay, KCL22R imatinib-resistant chronic myeloid leukemia cells; type: cell-based; conditions: 72 h, 3.1, 6.3, 12.5, 25 and 50 μM, vs control compound C5
Experimental: (§1) Exponentially growing KCL22R imatinib-resistant human chronic myeloid leukemia cells were treated with Compound 1, Compound 2 or the control compound C5 for 72 h at 3.1, 6.3. 12.5, 25 and 50 μM concentrations. The cell viability was assessed by MTS (3-(4,5-dimethylthiazolyl-2)-2,5-diphenyl-tetrazolium bromide) metabolic activity assay (CellTiter 96® AQueous Assay kit).
as §1, with “growing CWR22Rv1 prostate cancer cells, K562 leukemia cells and imatinib-sensitive KCL22S and imatinib-resistant” for “growing”, “KCL22R” for “KCL22R imatinib-resistant human”, “NBPP” for “Compound 1, Compound 2”

[2] = test system: K562 human chronic myeloid leukemia cells; assay: Cell viability, MTS assay, K562 chronic myeloid leukemia cells; type: cell-based; conditions: K562, 72 h, 3.1, 6.3, 12.5, 25 and 50 μM, vs control compound C5
Experimental: as §1, with “K562” for “KCL22R imatinib-resistant”
as §1, with “growing CWR22Rv1 prostate cancer cells, K562 leukemia cells and imatinib-sensitive KCL22S and imatinib-resistant” for “growing”, “KCL22R” for “KCL22R imatinib-resistant human”, “NBPP” for “Compound 1, Compound 2”

Stat5a/b [3] = assay: Constitutive Stat5a/b phosphorylation in imatinib-sensitive KCL22S cells (Western blot); type: cell-based, human
Experimental: (§2) Exponentially growing KCL22S and KCL22R cells were treated with Compound 1 or Compound 2 at various concentrations for 3 h and 16 h (Compound 1) or 3 h, 6 h or 16 h (Compound 2) after which the cells were harvested. Cell pellets were solubilized in lysis buffer [10 mM Tris-HCl (pH 7.6), 5 mM EDTA, 50 mM sodium chloride, 30 mM sodium pyrophosphate, 50 mM sodium fluoride, 1 mM sodium orthovanadate, 1% Triton X-100, 1 mM phenylmethylsulfonyl fluoride, 5 μg/ml aprotinin, 1 μg/ml pepstatin A, and 2 μg/ml leupeptin], rotated end-over-end at 4° C. for 60 min, and insoluble material was pelleted at 12,000×g for 30 min at 4° C. The protein concentrations of clarified cell lysates were determined by simplified Bradford method (Bio-Rad Laboratories, Hercules, Calif.). Western blotting of the lysates was carried out using, as primary antibodies, the following antibodies at the following concentrations: anti-phosphotyrosine-Stat5a/b (Y694/Y699) mAb (1 μg/ml, Advantex BioReagents, Conroe, Tex.), anti-Stat5ab mAb (1:250; BD Biosciences, San Jose, Calif.) or anti-actin pAb (Sigma). Anti-actin was included as a control.
(§3) Exponentially growing K562 cells were treated with NBPP for 3 h or 6 h after which the cells were harvested. Exponentially growing K562 cells or imatinib-resistant K562 cells were treated with NBPP for 6 h or 16 h after which the cells were harvested. Cell pellets were solubilized in lysis buffer [10 mM Tris-HCl (pH 7.6), 5 mM EDTA, 50 mM sodium chloride, 30 mM sodium pyrophosphate, 50 mM sodium fluoride, 1 mM sodium orthovanadate, 1% Triton X-100, 1 mM phenylmethylsulfonyl fluoride, 5 μg/ml aprotinin, 1 μg/ml pepstatin A, and 2 μg/ml leupeptin], rotated end-over-end at 4° C. for 60 min, and insoluble material was pelleted at 12,000×g for 30 min at 4° C. The protein concentrations of clarified cell lysates were determined by simplified Bradford method (Bio-Rad Laboratories, Hercules, Calif.). […]

Stat5a/b [4] = assay: Constitutive Stat5a/b phosphorylation in imatinib-resistant KCL22R cells (Western blot); type: cell-based, human
Experimental: as §2, §3

[5] = test system: CWR22Rv1 prostate cancer cells; assay: Cell viability, MTS assay, CWR22Rv1 prostate cancer cells; type: cell-based, human; conditions: CWR22Rv1, 72 h, 3.1, 6.3, 12.5, 25 and 50 μM, vs control compound C5
Experimental: as §1, with “CWR22Rvl prostate cancer” for “KCL22R imatinib-resistant human chronic myeloid leukemia”
as §1, with “growing CWR22Rv1 prostate cancer cells, K562 leukemia cells and imatinib-sensitive KCL22S and imatinib-resistant” for “growing”, “KCL22R” for “KCL22R imatinib-resistant human”, “NBPP” for “Compound 1, Compound 2”
as §1, with “CWR22Rvl prostate cancer” for “KCL22R imatinib-resistant human chronic myeloid leukemia”, “N6BA” for “Compound 1, Compound 2”

[6] = KCL22S, various concentrations, 3 h and 16 h (Compound 1) or 3 h, 6 h or 16 h (Compound 2)
[7] = KCL22R, various concentrations, 3 h and 16 h (Compound 1) or 3 h, 6 h or 16 h (Compound 2)

## OC[C@H]1O[C@@H](n2cnc3c(NNc4ccccc4)ncnc32)[C@H](O)[C@@H]1O [Compound 2, (2R,3S,4R,5R)-2-(hydroxymethyl)-5-(6-(2-phenylhydrazinyl)-9H-purin-9-yl)tetrahydrofuran-3,4-diol]
[1]
  number of viable cells: decreased the number of viable leukemic cancer cells compared to the control compound
[2]
  number of viable cells: decreased the number of viable leukemic cells compared to the control compound
Stat5a/b [3]; [6]
  effect on phosphorylation of Stat5: block phosphorylation of Stat5
Stat5a/b [4]; [7]
  effect on phosphorylation of Stat5: block phosphorylation of Stat5
[5]
  number of viable cells: decreased the number of viable prostate cancer cells compared to the control compound

## OC[C@H]1O[C@@H](n2cnc3c(N4CCc5ccccc5C4)ncnc32)[C@H](O)[C@@H]1O [Compound 1, (2R,3R,4S,5R)-2-(6-(3,4-Dihydroisoquinolin-2(1H)-yl)-9H-purin-9-yl)-5-(hydroxymethyl)tetrahydrofuran-3,4-diol]
[1]
  number of viable cells: decreased the number of viable leukemic cancer cells compared to the control compound
[2]
  number of viable cells: decreased the number of viable leukemic cells compared to the control compound
Stat5a/b [3]; [6]
  effect on phosphorylation of Stat5: block phosphorylation of Stat5
Stat5a/b [4]; [7]
  effect on phosphorylation of Stat5: block phosphorylation of Stat5
[5]
  number of viable cells: decreased the number of viable prostate cancer cells compared to the control compound

## OC[C@H]1O[C@@H](n2ccc3c(NCc4ccccc4)ncnc32)[C@H](O)[C@@H]1O [NBPP, N-(phenylmethyl)-7-β-D-ribofuranosyl-7H-pyrrolo[2,3-d]pyrimidin-4-amine]
[1]
  number of viable cells: decreased the number of viable KCL22R cells
[2]
  number of viable cells: decreased the number of viable K562 cells
Stat5a/b [3]; KCL22S imatinib-sensitive, 6 h or 16 h
  effect on phosphorylation of Stat5: inhibits phosphorylation of Stat5
Stat5a/b [4]; KCL22R imatinib-resistant, 6 h or 16 h
  effect on phosphorylation of Stat5: inhibits phosphorylation of Stat5
[5]
  number of viable cells: decreased the number of viable prostate cancer cells

## OC[C@H]1O[C@@H](n2cnc3c(NCc4ccccc4)ncnc32)[C@H](O)[C@@H]1O [Compound N6BA, N^6-benzyladenosine]
[5]
  number of viable cells: decreased the number of viable prostate cancer cells
